Data on 13 molecules can be found in patent US11104657B2, “Notch inhibitors for use in the treatment of t-cell acute lymphoblastic leukemia” (UNIVERSITÀ DEGLI STUDI DI ROMA “LA SAPIENZA”, priority 2016, dated 2021).

Where two headings read alike, the source gives them in different places.

For assay [1], the system named is DND41 cells. Nature of the assay: MTS cell proliferation assay (IG50), DND41. It is filed as cell-based, human. Particulars: for effect on cell proliferation: doses of up to 50 μM; for IC50: Homo sapiens. The protocol:
In order to evaluate the biological implications of the compounds, their effect on cell proliferation/vitality was tested by determining the relative concentrations of growth inhibition (IG50) by means of the MTS cellular assay.
(§1) The cell lines DND41 (ACC 525, DSMZ, Braunschweig, GERMANY), KOPTK1 (RRID: CVCL_4965) were maintained in culture in RPMI-1640 (Gibco, Carlsbad, Calif., USA) with 10% fetal bovine serum. TALL-1 cells (ACC-521: DSMZ, Braunschweig, GERMANY) were cultured in RPMI-1640 (Gibco, Carlsbad, Calif., USA) supplemented with 20% fetal bovine serum, while HaCaT cells (ACC-771: DSMZ, Braunschweig, GERMANY) were maintained in Eagle's culture medium according to Dulbecco (Gibco, Carlsbad, Calif., USA) containing 10% fetal bovine serum. Cells were treated with the naturally-occurring compounds A-H or with compounds 1-17 for times and concentrations indicated in the text.
Cells were seeded in 96-well plates with a density of 5×10^5 cells/ml (5×10^4 cells per well) and treated for the times and the concentrations of the various compounds, as indicated in the text.
(§2) All treatments were carried out in triplicate, including control treatments. All treatment reactions contained a final concentration of 1% DMSO (D5879; Sigma-Aldrich, St Louis, Mo., USA). To quantify vitality, cells were assayed by the MTS CellTiter 96® AQueous One Solution Cell Proliferation Assay (G3580; Promega, Madison, Wis., USA). Absorbance was detected at 490 nm using the GloMax Multidetection System instrument (Promega, Madison, Wis., USA). Data were collected in the form of absorbance units (ABSs) and standardized to obtain the proliferation rate (MTS) through the equation: % cell proliferation=(ABScell culture+compound−ABSculture medium+compound/(ABScell culture+DMSO−ABSculture medium+DMSO)×100.
The 50% inhibition concentration was calculated using the GraphPad Prism software program (GraphPad Software Inc., La Jolla, Calif., USA).

Assay [2] concerns Notch signaling (N1VAL, N3ICD) in DND41 cells. As to the kind of experiment: Western blot of N1VAL and N3ICD expression in DND41 cells. It is filed as cell-based, human. Particulars: for effect on the expression of N1VAL / concentration at which expression of N1VAL and N3ICD is decreased: DND41 cells, 36 hours, Western blot; for effect on the expression of N1VAL: 0-50 μM. The protocol:
In order to identify new naturally-occurring molecular agents able to modulate Notch signaling, the effects on protein expression of the activated domain of Notch1 (N1VAL), and of the intracellular domain of Notch3 (N3ICD), were evaluated in DND41 cells through
Western blotting assays, following treatment for 36 hours with increasing concentrations (0, 1, 5, 10, 20, 50 μM) of the eight molecules (A-H) previously selected. Functional biochemical screening was performed on T-ALL DND41 cells because they are notoriously sensitive to the block of Notch signaling, and characterized by the constitutive and ligand-independent activation of the Notch1 pathway and by the high expression of Notch3. This makes this cell line a useful experimental model for screening putative Notch inhibitors.
In order to investigate the activity and selectivity of action of the 12 synthetic derivatives of butein, and following the screening scheme described in the first design phase, the efficacy of these molecules was analyzed by verifying the effects of 36 hours of treatment at increasing doses on the activation of Notch signaling and on the proliferation in DND41 cells.
(§3) Laemmli Sample Buffer (161-0737; Bio-Rad Laboratories Inc., Hercules, Calif., USA) was added to each cell pellet. Cells were lysed by ultrasonic sonication and to each mixture 5% 2-mercaptoethanol (161-0710; Bio-Rad Laboratories Inc., Hercules, Calif., USA) was added. Samples were denatured at 100° C. for 5 min and protein mixtures were separated by means of Sodium Dodecyl Sulphate-Polyacrylamide Gel Electrophoresis using 8% acrylamide and transferred onto nitrocellulose membranes. After transfer, the membranes pre-saturated in 5% Blot Dry Fat Milk (1706404; Bio-Rad Laboratories Inc., Hercules, Calif., USA) were incubated for 16 hours at +4° C. with the following primary antibodies diluted at 1:1000 in 5% Dry Fat Milk (1706404; Bio-Rad Laboratories Inc., Hercules, Calif., USA): Notch1Val1744 (2421; Cell Signaling Technology, Beverly, Mass., USA), Notch3 (2889; Cell Signaling Technology, Beverly, Mass., USA) and β-actin (sc-47778; Santa Cruz Biotechnology, Santa Cruz, Calif., USA). Subsequently, filters were incubated for 1 hour at room temperature with the following secondary antibodies: anti-rabbit (sc-2004, Santa Cruz Biotechnology, Santa Cruz, Calif., USA) or anti-mouse (sc-2005, Santa Cruz Biotechnology, Santa Cruz, Calif., USA). Chemiluminescence signal detection was performed using the ECL Advanced Detection System substrate (RPN2135; E Healthcare UK Limited, Buckinghamshire, UK).

The subject of assay [3] is KOPTK1 cells. Nature of the assay: MTS cell proliferation assay, KOPTK1. Particulars: Homo sapiens. Type of assay: cell-based. The protocol:
as §1, with “text. […]” for “text.”
as §2, with “All treatment reactions contained a final concentration of 1% DMSO (D5879; Sigma-Aldrich, St Louis, Mo., USA).” left out, “medium+DMSO)×100. […]” for “medium+DMSO)×100.”

For assay [4], the system named is HaCaT keratinocytes. Nature of the assay: MTS cell proliferation assay, HaCaT keratinocytes. Type of assay: cell-based. Particulars: Homo sapiens; immortalized non-tumor HaCaT keratinocytes. The method, then: as §1, with “text. […]” for “text.”
as §2, with “All treatment reactions contained a final concentration of 1% DMSO (D5879; Sigma-Aldrich, St Louis, Mo., USA).” left out, “medium+DMSO)×100. […]” for “medium+DMSO)×100.”

Assay [5] has as its system activated domain of Notch1 in HaCaT cells. As to the kind of experiment: Western blot of N1VAL expression in HaCaT cells. It is filed as cell-based. Particulars: 36 hours. The method, then: as §3, with “Chemiluminescence signal detection was performed using the ECL Advanced Detection System substrate (RPN2135; E Healthcare UK Limited, Buckinghamshire, UK).” left out
Assay [6] deals with TALL-1 cells. As to the kind of experiment: MTS cell proliferation assay, TALL-1. It is filed as cell-based. Particulars: Homo sapiens. The protocol:
as §1, with “text. […]” for “text.”
as §2, with “All treatment reactions contained a final concentration of 1% DMSO (D5879; Sigma-Aldrich, St Louis, Mo., USA).” left out, “medium+DMSO)×100. […]” for “medium+DMSO)×100.”

[7] abbreviates: 36-hour treatments in DND41 cells, mean of triplicate experiments ± S.D., Table 2, read-out: IG50 ± S.D.
[8] abbreviates: DND41 cells, MTS assay, 36 hours of treatment, read-out: IG50 (growth inhibition).
The mark [9] stands for this setting: 36-hour treatments in DND41 cells, mean of triplicate experiments ± S.D., Table 1, read-out: IG50 S.D.

Regarding `CC(=O)C1=C(O)[C@]2(C)C(=CC1=O)Oc1c(C(C)=O)c(O)c(C)c(O)c12` [Compound G, 2,6-diacetyl-7,9-dihydroxy-8,9b-dimethyldibenzofuran-1,3-dione, reference compound], the “effect on cell proliferation” value in assay [1] (DND41 cells) is given as “do not significantly affect cell proliferation”. Also, the IC50 in assay [1] (DND41, 36 h, read-out: IG50 S.D.) was > 50 µM. The “effect on the expression of N1VAL” value in assay [2] is on record as “did not significantly modulate”.
Turning to `COc1ccc(C(=O)/C=C/c2ccc(O)cc2)c(O)c1` [Compound 8, 2′,4-dihydroxy-4′-methoxychalcone], the IC50 in assay [1] (setting [7]) was 1.92 ± 1.04 µM; in assay [1] (setting [8]), 1.92 µM; in assay [3], 0.91 ± 0.06 µM; in assay [4] it was 48.6 ± 8.06 µM; in assay [6], 0.29 ± 0.02 µM. In addition, the “concentration from which expression of the activated domain of Notch1 is significantly reduced” value in assay [5] is ≥ 2.5 µM.
For `COc1c2occc2cc2ccc(=O)oc12` [Compound D, 9-methoxyfuran[3,2-g]chromen-7-one, reference compound], in assay [1] (DND41 cells), the “effect on cell proliferation” value is “do not significantly affect cell proliferation”. Further, in assay [1] (setting [9]), the IC50 was > 50 µM. In addition, in assay [2], the “effect on the expression of N1VAL” value is given as “did not significantly modulate”.
Turning to `CC(C)(O)C1Cc2c(ccc3ccc(=O)oc23)O1` (stereo in doubt) [Compound E, (8R)-8-(2-hydroxypropane-2-yl)-8,9-dihydrofuran[2,3-h]chromen-2-one, reference compound], the “effect on cell proliferation” value in assay [1] (DND41 cells) is listed as “do not significantly affect cell proliferation”. In addition, the IC50 in assay [1] (setting [9]) was > 50 µM. Moreover, the “effect on the expression of N1VAL” value in assay [2] is recorded as “did not significantly modulate”.
`COc1ccc(C(=O)/C=C/c2ccc(O)cc2)c(OC)c1` [Compound 16, 4-hydroxy-2′,4′-dimethoxychalcone]: the IC50 in assay [1] (setting [7]) is 13.8 ± 0.61 µM; in assay [1] (setting [8]), > 13 µM. In addition, in assay [2], the “concentration at which expression of N1VAL and N3ICD is decreased” value turned out to be 2.5 µM.
Take `CC(C)=CCc1c(O)ccc(C(=O)/C=C/c2ccc(O)cc2)c1O` [Compound B, (E)-1-[2,4-dihydroxy-3-(3-methylbut-2-enyl)phenyl]-3-(4-hydroxyphenyl) prop-2-en-1-one, reference compound]: the IC50 came out at 13.9 µM in assay [1] (setting [9]) and 13.9 ± 2.7 µM in assay [1] (setting [8]). Further, the “inhibitory activity of Notch” value in assay [2] (screening carried out by the present inventors) is recorded as “did not show any inhibitory activity”.
With `COc1ccc(C(=O)/C=C/c2ccc(O)cc2)cc1` [Compound 17, 4-hydroxy-4′-methoxychalcone], the figures for the IC50 in assay [1] (setting [7]) and in assay [1] (setting [8]) were 19.5 ± 0.56 µM and > 13 µM, respectively. Further, the “concentration at which expression of N1VAL and N3ICD is decreased” value in assay [2] amounted to 2.5 µM.
Take `COc1ccccc1C(=O)/C=C/c1ccc(OC2CCCCO2)cc1` (centres unmarked) [Compound 15a, 2′-methoxy-4-(tetrahydropyran-2-yloxy)chalcone]: in assay [1] (setting [7]), the IC50 is 31.5 ± 1.46 µM.
`O=C(/C=C/c1ccc(OC2CCCCO2)cc1)c1ccccc1O` (centres unmarked) [Compound 14a, 2′-hydroxy-4-(tetrahydropyran-2-yloxy)chalcone]: the IC50 in assay [1] (setting [7]) is 48.6 ± 3.42 µM.
`COc1ccc(C(=O)/C=C/c2ccccc2OC)c(O)c1` [Compound 13, 2′-hydroxy-2,4′-dimethoxychalcone]: the IC50 in assay [1] (setting [7]) came out at 21.8 ± 1.78 µM.
For `COc1ccc2oc3cccc(O)c3c(=O)c2c1` [Compound F, 1-hydroxy-7-methoxy-9H-xanthen-9-one, reference compound], the “effect on cell proliferation” value in assay [1] (DND41 cells) is “do not significantly affect cell proliferation”. Also, the IC50 in assay [1] (setting [9]) is > 50 µM. The “effect on the expression of N1VAL” value in assay [2] is listed as “did not significantly modulate”.
As for `COc1ccc(C(=O)/C=C/c2ccc(O)c(OC)c2)c(O)c1` [Compound 7, 2′,4-dihydroxy-3,4′-dimethoxychalcone], the IC50 in assay [1] (setting [7]) amounted to 33.1 ± 1.89 µM.
On to `COc1ccc(C(=O)/C=C/c2ccc(OC)c(OC3CCCCO3)c2)c(O)c1` (centres unmarked) [Compound 5a, 2′-hydroxy-4,4′-dimethoxy-3-(tetrahydropyran-2-yloxy) chalcone], for which, in assay [1] (setting [7]), the IC50 is > 50 µM.
